# Results taken from patent US9216165B2, “Combination of a statin and a taxane for the treatment of gastric cancer” (INSERM (Institut National de la Sante et de la Recherche …, priority 2011, dated 2015).
# Key:
# HGT-1 cells [1] = assay: Protein levels by western blotting in HGT-1 cells; assay type: cell-based, human
# Protocol: (§1) The cells were harvested, washed in PBS and lysed in ripa buffer (50 mM Tris HCl pH7.4, 150 mM NaCl, 0.5% Sodium deoxycholate, 0.1% SDS, 1% NP40, 1 mM EDTA, 1 mM PMSF) containing protease inhibitor cocktail (Roche, Meylan, France) and phosphatase inhibitor (Active motif) for 10 min at 4° C. Sixty micrograms of proteins were boiled in Laemmli sample buffer (Bio-Rad) for 5 min, separated by SDS-PAGE using 12% or 15% polyacrylamide gels and blotted onto polyvinyl difluoride membranes (GE Healthcare). Non specific binding sites were blocked for 1 h at room temperature by 5% (wt/v) fat-free milk before overnight incubation at 4° C. with specific rabbit (or mouse for cyclin B1) anti-human antibodies: aurora kinase A and B, procaspase-3, PARP, Bcl-2, Bax and survivin (Cell Signaling Technology-Ozyme, Saint Quentin en Yvelines, France), p27, p21, Mcl-1, cyclin B1 (Santa Cruz biotechnology, Tebu-bio, le Perray en Yvelines, France), cyclin D1 (NeoMarkers, Thermo Fisher Scientific, Illkirch, France) or HSC70 (Abcam, Paris, France) as a loading control. Anti-phospho-ERK1/2 was a mouse monoclonal antibody against a synthetic phosphopeptide (residues around threonine 202 and […] of human p44 MAPK, Cell Signaling Technology, Ozyme, France). Polyclonal antibodies against ERK1 (rabbit, sc-94) or ERK2 (rabbit, sc-154) and phospho-MEK1/2 were from Santa Cruz Biotechnology (Tebu-bio). Rabbit anti-phospho-JNK (Cell Signaling, Saint-Quentin en Yvelines, France) and rabbit polyclonal antibody anti-P38 (Santa Cruz Biotechnology, Tebu-bio). Primary antibodies were detected with a horseradish peroxidase-conjugated IgGs (GE Healthcare, Orsay, France).
# [2] = tested on: HGT-1 human gastric cancer cells; assay: Apoptosis by Hoechst 33342 staining in HGT-1 cells; assay type: cell-based; conditions: for apoptosis: HGT-1
# Protocol: HGT-1 human gastric cancer cells were grown at 37° C. under a humidified atmosphere of 5% CO2 in DMEM (Dulbecco's modified Eagle's medium) (Lonza, Saint Beauzire, France), containing 4.5 g/L glucose and supplemented with 5% fetal bovine serum without antibiotics (Gibco-Invitrogen, Cergy Pontoise, France).
# (§2) Apoptosis was determined by Hoechst 33342 (10 μg/ml in PBS) staining of the cells for 15 min at 37° C. and fluorescence microscopy analysis of 300 cells per condition, from replicate cultures.
# [3] = tested on: lovastatin-resistant HGT-1-derived cells; assay: Apoptosis in lovastatin-resistant HGT-1-derived cells; assay type: cell-based, human; conditions: data not shown
# Protocol: as §2
# HGT-1 cells [4] = assay: mRNA levels by quantitative real-time RT-PCR in HGT-1 cells; assay type: cell-based, human; conditions: 48 h
# Protocol: Total RNA was isolated using Trizol (Invitrogen, Cergy-Pontoise, france) and the RNA samples were used for the first-strand cDNA synthesis with the High Capacity cDNA Reverse Transcription kit and random hexamer primers (Applied biosystems). Quantitative real-time RT-PCR was performed using the Power SYBR Green Kit (Applied biosystems) according to the manufacturer's instructions. mRNA levels were analyzed in duplicate, normalized against GAPDH or phospho-protein P0 as an internal control gene. The results are expressed as the relative gene expression using the ΔΔCt method (Livak and Schmittgen 2001). The primer sequences and reaction conditions will be provided upon request.
# D5 cells [5] = assay: p21 mRNA by RT-PCR in D5 cells; assay type: cell-based, human; conditions: data not shown
# Protocol: Selection of the docetaxel-resistant cell populations was performed with mass cultures grown in complete medium supplemented with 5 nM docetaxel. […] Cells were constantly grown in presence of 5 nM docetaxel, excepted for the cell passage that preceded the experiments that involved drug treatments.
# [6] = tested on: docetaxel-resistant HGT-1 cells (D5)
# Protocol: Selection of the docetaxel-resistant cell populations was performed with mass cultures grown in complete medium supplemented with 5 nM docetaxel. […] Cells were constantly grown in presence of 5 nM docetaxel, excepted for the cell passage that preceded the experiments that involved drug treatments. […]
# D5 cells [7] = assay: Protein levels by western blotting in D5 cells; assay type: cell-based, human; conditions: 2.5 μM lovastatin, 72 h
# Protocol: as §1, with “Polyclonal antibodies against ERK1 (rabbit, sc-94) or ERK2 (rabbit, sc-154) and phospho-MEK1/2 were from Santa Cruz Biotechnology (Tebu-bio). Rabbit anti-phospho-JNK (Cell Signaling, Saint-Quentin en Yvelines, France) and rabbit polyclonal antibody anti-P38 (Santa Cruz Biotechnology, Tebu-bio).” left out
compound,measurement,setting,value
"CC(=O)O[C@@]12CO[C@@H]1C[C@H](O)[C@@]1(C)C(=O)[C@H](O)C3=C(C)[C@@H](OC(=O)[C@H](O)[C@@H](NC(=O)OC(C)(C)C)c4ccccc4)C[C@@](O)([C@@H](OC(=O)c4ccccc4)[C@H]21)C3(C)C [docetaxel, Docetaxel]","phospho-MEK1/2, phospho-ERK1/2 and p38 MAP kinase levels",HGT-1 cells [1],had no effect
same,phosphorylated jun kinase (JNK),HGT-1 cells [1],had no effect
same,Bax protein,HGT-1 cells [1]; 48 h,remained unchanged
same,Caspase-3 and PARP cleavage,HGT-1 cells [1]; 48 h,cleaved
same,Mcl-1 protein,HGT-1 cells [1]; 48 h,suppressed
same,"cyclin B1, D1, aurora kinase A, B and survivin protein levels",HGT-1 cells [1]; 48 h,decrease in these proteins
same,survivin protein levels,HGT-1 cells [1]; 48 h,strongly induced
same,cyclin B1 protein,"HGT-1 cells [1]; docetaxel, 48 h",slightly increased
same,apoptosis,"[2]; 5 nM docetaxel, 48 h",15%
same,apoptosis,"[2]; 10 nM docetaxel, 48 h",27%
same,apoptosis compared with HGT-1 parental cells,[3],higher level
same,p21 expression,HGT-1 cells [4]; 5 or 10 nM docetaxel,induced
same,aurora kinase B and survivin mRNA,HGT-1 cells [4],weakly induced
CC[C@H](C)C(=O)O[C@H]1C[C@@H](C)C=C2C=C[C@H](C)[C@H](CC[C@@H]3C[C@@H](O)CC(=O)O3)[C@H]21 [lovastatin],induction of p21 mRNA in D5 cells compared with HGT-1,D5 cells [5],stronger
same,"phospho-MEK1/2, phospho-ERK1/2 and p38 MAP kinase levels",HGT-1 cells [1],decreased
same,phosphorylated jun kinase (JNK),HGT-1 cells [1],induced
same,Bax protein,HGT-1 cells [1]; 48 h,slightly suppressed
same,Caspase-3 and PARP cleavage,HGT-1 cells [1]; 48 h,cleaved
same,Mcl-1 protein,HGT-1 cells [1]; 48 h,suppressed
same,"cyclin B1, D1, aurora kinase A, B and survivin protein levels",HGT-1 cells [1]; 48 h,decrease in all proteins
same,apoptosis,"[6]; 2.5 or 5 μM lovastatin, 48 or 72 h, D5 cells",up to 55%
same,apoptosis,"[2]; 12.5 μM lovastatin, 48 h",35%
same,apoptosis,"[2]; 2.5 or 5 μM lovastatin, 48 or 72 h",up to 32%
same,over-expressed survivin and cyclin B1 proteins in D5 cells,D5 cells [7],fully suppressed
same,p27 protein in D5 cells,D5 cells [7],induced
same,p27 expression,HGT-1 cells [4]; 12.5 μM lovastatin alone or with 5 or 10 nM docetaxel,slightly reduced
same,p21 mRNA induction,HGT-1 cells [4]; 12.5 μM lovastatin,up to 4 fold
same,"LDL-R, HMG-CoA reductase, FPPS and FAS mRNA levels",HGT-1 cells [4],induced
same,aurora kinase B and survivin mRNA,HGT-1 cells [4],repressed
same,"cyclin B1, cyclin D1 and aurora kinase A mRNA",HGT-1 cells [4],reduced expression of all transcripts
CC[C@]1(O)C[C@@H]2CN(CCc3c([nH]c4ccccc34)[C@@](C(=O)OC)(c3cc4c(cc3OC)N(C)[C@H]3[C@@](O)(C(=O)OC)[C@H](OC(C)=O)[C@]5(CC)C=CCN6CC[C@]43[C@@H]65)C2)C1 [vinblastine],vinblastine-induced apoptosis in D5 cells,"[6]; 1 nM vinblastine, 48 h",resistant
same,apoptosis,"[2]; 1 nM vinblastine, 48 h",about 30%
Z-VAD-fmk,effect on docetaxel-induced cell death,"[2]; HGT-1, with docetaxel",suppress cell death
